# Laboratory results reported in US20060074073A1, “Therapeutic combinations comprising poly (ADP-ribose) polymerases inhibitor” (AGOURON PHARMACEUTICALS, INC., priority 2004, published 2006).
# Where two headings read alike, the source gives them in different places. Marks after values point to notes of the source that are not given here.
# How the values were obtained:
# in vivo = conditions: CD-1, mouse, iv, 5 mg/kg
# Source text: Each of the dose treatment groups was split into 2 cohort groups of 4 mice. The reason for cohort blood sampling is due to the blood volume limitations of the mouse species. Blood was drawn from each cohort every other pharmacokinetic sampling time. […] Three mice per dose group were euthanized at each of the collection time points. […] Blood from each rat was collected for each time point.
# PARP [1] = assay: Inhibition of cellular NAD consumption in P388 mouse leukemia cells after PARP activation; format: cell-based; conditions: PARP activated by MNNG, hydrogen peroxide or gamma irradiation, data not shown
# Source text: After DNA damage, cellular NAD is rapidly incorporated into poly-ADP-ribose polymer.
# [2] = test system: SW620 human colon carcinoma xenograft; assay: In vivo antitumor efficacy with temozolomide, SW620 xenograft; conditions: SW620
# [3] = Plasma and tumor levels by HPLC/MS in mice bearing SW620 xenograft; format: in vivo; conditions: for concentration at 0.5 h / concentration at 6 h / concentration at 24 h: mouse, intraperitoneal
# Method: In a parallel study plasma and tumor levels of the compound of formula 1 were measured by an HPLC/MS assay. In addition the degree of inhibition of tumor PARP catalytic activity was assessed using P^32-NAD incorporation into poly-ADP-ribose polymer in homogenates from SW620 tumors of treated animals. […] PARP catalytic activity was inhibited by 50% at 6 h and by 25% at 24 h.
# LoVo xenografts = assay: In vivo antitumor efficacy with irinotecan, LoVo xenograft; set-up: species or system mice; conditions: irinotecan 25 mg/kg i.p. + 0.5 mg/kg i.p. (glucuronate salt), once weekly × 3
# Source text: In no combination study was antagonism observed.
# PARP [4] = assay: Tumor PARP catalytic activity, 32P-NAD incorporation in SW620 tumor homogenates of treated animals; format: in vivo, mice
# Method: Tumours were excised and were snap frozen in liquid nitrogen and stored at −80° C. until homogenised for analysis. The specimen was defrosted on ice and the wet weight documented. The tissue was homogenised using a Pro 2000 instrument (Pro Scientific Inc, Monroe, Conn., USA) in 3 volumes (i.e. 1 mg plus 3 μl isotonic buffer −7 mM Hepes, 26 mM KCl, 0.1 mM dextran, 0.4 mM EGTA, 0.5 mM MgCl2, 45 mM sucrose, pH 7.8), giving a homogenate with an overall dilution of 1 in 4. The homogenate was kept on ice throughout the process, and homogenisation was performed in 10 second bursts to prevent undue warming of the sample. Prior to assay the samples were further diluted with isotonic buffer where necessary to give a final dilution of 1 in 40 for [^32P]NAD incorporation assay or 1 in 1000 for immunoblot aaasy.
# Briefly, cells were suspended in hypotonic buffer (9 mM HEPES pH 7.8, 4.5% (v/v) dextran, 4.5 mM MgCl2 and 5 mM DTT) at 1.5×10^7/ml on ice for 30 minutes then 9 vol of isotonic buffer (40 mM HEPES pH 7.8, 130 mM KCl, 4% (v/v) dextran, 2 mM EGTA, 2.3 mM MgCl2, 225 mM sucrose and 2.5 mM DTT) was added. The reaction was started by adding 300 μl cells to 100 μl 300 μM NAD^+ containing [^32P]-NAD^+ (Amersham, UK), and terminated by the addition of 2 ml ice cold 10% (w/v) TCA+10% (w/v) sodium pyrophosphate. After 30 min on ice the precipitated ^32P—labelled ADP-ribose polymers were filtered on Whatman GC/C filters (Whatman Intemational Ltd, Kent, UK), washed 5 times with 1% (v/v) TCA/1% (v/v) sodium pyrophosphate, dried and counted. PARP inhibitory IC50 values were calculated from computer-fitted curves (GraphPad Software, Inc., San Diego, Calif.).
# Tumour homogenates were assayed in a similar manner; however, the homogenisation process introduces sufficient DNA damage to maximally stimulate PARP activity and oligonucleotide was not therefore required. Results were expressed in terms of pmol PAR former per mg tumour.
# Preparation of Tumour/Tissue Samples • 1. The frozen tumour samples are weighed. • 2. 3 volumes (i.e. 3 μl solution added for each 1 mg tissue) of isotonic buffer plus DTT is added to the tumour sample. This is stored on ice until and during homogenisation. • 3. The sample is homogenised on ice within a Class II cabinet for 10-second bursts until no detectable macroscopic pieces of tissue are visible. • 4. Sufficient volume of the homogenate is diluted 1 in 10 with isotonic buffer plus DTT to provide an overall dilution of 1 in 40 from the original sample. A final volume of 3 ml is sufficient for triplicate sampling and a subsequent protein assay. • 5. The diluted homogenate is stored on ice and assayed within one hour as below.
# PARP Assay of Tumour/Tissue Samples • 1. ^32P 600 μM NAD solution is prepared fresh on the day of experiment as detailed above. Oligonucleotide stock is removed from storage and defrosted. • 2. Water bath is warmed to 26° C. and set to agitate at 70 oscillations per minute.
# 3. Reaction test tubes are set up as per table A for the QC samples and as per table B for the homogenate.
# • 4. Each QC sample is assayed in triplicate, with T0, +oligo and −oligo samples ×3. (Total of 9 tubes per sample, if low cell counts −oligo samples are omitted.) Homogenates are also assayed in triplicate, with T0 and reaction samples ×3. (Total 6 tubes per sample). • 5. 2 ml ice cold 10% TCA+10% NaPPi is added to the T0 tubes prior to addition of homogenate or cells, to correct for non-specific binding of radio-label to the filter. • 6. Reaction test tubes homogenates and QC cells are warmed in the water bath to 26° C. for 7 minutes. • 7. Each preparation is vortexed briefly and the reaction is started by adding 300 μl of this to each reaction tube. • 8. The reaction is stopped exactly 6 minutes after addition of homogenate by adding 2 ml of ice cold 10% TCA+10% NaPPi and vortexing. • 9. The tube is then incubated on ice for at least one hour prior to filtration. • 10. […]
compound,measurement,setting,value
"CNCc1ccc(-c2[nH]c3cc(F)cc4c3c2CCNC4=O)cc1 [compound of formula 1, 8-fluoro-2-{4-[(methylamino)methyl]phenyl}-1,3,4,5-tetrahydro-6H-azepino[5,4,3-cd]indol-6-one]",AUC(0-inf),in vivo,620 ng·h/mL
same,Vd,in vivo,10 L/kg
same,clearance,in vivo,136 mL/min/kg
same,half-life,in vivo,2.3 h
same,inhibition of PARP catalytic activity (cellular NAD consumption),PARP [1],inhibits PARP catalytic activity
same,Enhancement (%),"[2]; 0.1 mg/kg i.p. glucuronate salt + temozolomide 68 mg/kg p.o., QD×5",28%
same,Enhancement (%),"[2]; 1.0 mg/kg i.p. glucuronate salt + temozolomide 68 mg/kg p.o., QD×5",100%
same,Enhancement (%),"[2]; temozolomide 200 mg/kg oral + compound 0.1 mg/kg i.p., single dose",50^e %
same,Enhancement (%),"[2]; temozolomide 200 mg/kg oral + compound 0.3 mg/kg i.p., single dose",80^e %
same,Enhancement (%),"[2]; temozolomide 200 mg/kg oral + compound 1 mg/kg i.p., single dose",107^e %
same,Enhancement (%),"[2]; temozolomide 200 mg/kg oral + compound 5 mg/kg i.p., single dose","111^e,f %"
same,Tumor compound of formula 1,"[3]; 1.0 mg/kg i.p. as phosphate salt, 24 h",BLQ^c
same,plasma concentrations,"[3]; 1.0 mg/kg, 6 hours",barely detectable
same,Plasma compound of formula 1,"[3]; 10 mg/kg i.p. as phosphate salt, 0.5 h",1867 + 102 ng/mL
same,plasma concentrations,"[3]; 10 mg/kg, 24 h",barely detectable
same,tumor levels,"[3]; 10 mg/kg, all times up to 24 h",> 200 ng/mL
same,concentration at 0.5 h,"[3]; plasma, 1 mg/kg, Plasma compound of formula 1, 1.0 mg/kg i.p. as phosphate salt, 0.5 h",107 ± 32.3 ng/mL
same,concentration at 6 h,"[3]; plasma, 1 mg/kg, Plasma compound of formula 1, 1.0 mg/kg i.p. as phosphate salt",6.64 ± 1.55 ng/mL
same,concentration at 24 h,"[3]; plasma, 1 mg/kg, Plasma compound of formula 1, 1.0 mg/kg i.p. as phosphate salt, 24 h",1.85 ± 0.14 ng/mL
same,concentration at 6 h,"[3]; plasma, 10 mg/kg, Plasma compound of formula 1, 10 mg/kg i.p. as phosphate salt",64.4 ± 11 ng/mL
same,concentration at 24 h,"[3]; plasma, 10 mg/kg, Plasma compound of formula 1, 10 mg/kg i.p. as phosphate salt, 24 h",2.34 ± 0.33 ng/mL
same,concentration at 6 h,"[3]; plasma, 10 mg/kg, read-out: plasma concentrations",30 ng/mL
same,concentration at 0.5 h,"[3]; tumor, 1 mg/kg, Tumor compound of formula 1, 1.0 mg/kg i.p. as phosphate salt, 0.5 h",98.3 ± 25.2 ng/g
same,concentration at 6 h,"[3]; tumor, 1 mg/kg, Tumor compound of formula 1, 1.0 mg/kg i.p. as phosphate salt",49.5 ± 2.12 ng/g
same,concentration at 0.5 h,"[3]; tumor, 10 mg/kg, Tumor compound of formula 1, 10 mg/kg i.p. as phosphate salt, 0.5 h",767 ± 55.6 ng/g
same,concentration at 6 h,"[3]; tumor, 10 mg/kg, Tumor compound of formula 1, 10 mg/kg i.p. as phosphate salt",523 ± 37.3 ng/g
same,concentration at 24 h,"[3]; tumor, 10 mg/kg, Tumor compound of formula 1, 10 mg/kg i.p. as phosphate salt, 24 h",167 ± 54.2 ng/g
same,Enhancement (%),LoVo xenografts,86%
same,PARP catalytic activity inhibited,"PARP [4]; 1.0 mg/kg, 6 h",50%
same,PARP catalytic activity inhibited,"PARP [4]; 1.0 mg/kg, 24 h",25%
same,PARP catalytic activity inhibited,"PARP [4]; 10 mg/kg, 6 h",90%
same,PARP catalytic activity inhibited,"PARP [4]; 10 mg/kg, 24 h",75%
